Source: patent US12133921B2, “Capsule filling composition, method of producing capsule formulation with the use of capsule filling composition, and capsule formulation” (SHIN-ETSU CHEMICAL CO., LTD., priority 2019, dated 2024)

Experiment: Compressibility index of the active ingredient
Assay type: physicochemical
Conditions: 2,000 mg compressed at 0.5 N, remaining weight after three droppings from 1 cm, n=5
Description: The active ingredient weighing 2,000 mg was introduced into a polycarbonate tube (a hollow cylindrical form with an inner diameter of 12.5 mm and a height of 52.0 mm; “polycarbonate spacer (hollow) CPC (CPC-1252); manufactured by Hirosugi Keiki Co., Ltd.) which was left to stand on a stainless steel bat. Next, by using a tension and compression testing machine (“SDT—503 NB”; manufactured by Imada Seisakusho Co., Ltd.), the active ingredient within the polycarbonate tube was compressed by a cylindrical tool having a contact surface of 11.28 mmΦ in diameter to prepare a compressed product (compression condition; speed: 100 mm/min., load: 0.5 N, load maintaining time: 1 sec.). […]
The lifted polycarbonate tube was released from the fingers, and dropped down. After repeating this procedure three times, the remaining weight of the polycarbonate tube containing the compressed product of the active ingredient was measured as a weight after test.
The amount of powder flowing out from the polycarbonate tube was determined by subtracting the weight after test from the weight before test. Furthermore, the remaining weight of the compressed product of the active ingredient was determined by subtracting the amount of powder flowing out from the polycarbonate tube from the weight before test. […]

SMILES: Cc1cc2nc3c(=O)[nH]c(=O)nc-3n(C[C@H](O)[C@H](O)[C@H](O)CO)c2cc1C [vitamin B2, riboflavin]
- compressibility index: 5%
